Here are results for five compounds from PubChem BioAssay AID1259407 (Chemical Carcinogenesis Research Information System (CCRIS), 2018).

The test system of the series is CCRIS mutagenicity, Ames/micronucleus/aberration tests. The series can be described thus: CCRIS mutagenicity studies.
[1] abbreviates: Test System: AMES SALMONELLA TYPHIMURIUM, Strain/Indicator: TA98, Metabolic Activation: NONE, Method: STANDARD PLATE.
[2] abbreviates: Test System: AMES SALMONELLA TYPHIMURIUM, Strain/Indicator: TA98, Metabolic Activation: RAT, LIVER, S-9, AROCLOR 1254, Method: STANDARD PLATE.
[3] abbreviates: Test System: AMES SALMONELLA TYPHIMURIUM, Strain/Indicator: TA100, Metabolic Activation: NONE, Method: STANDARD PLATE.
Setting [4] is: Test System: AMES SALMONELLA TYPHIMURIUM, Strain/Indicator: TA100, Metabolic Activation: RAT, LIVER, S-9, AROCLOR 1254, Method: STANDARD PLATE.
Where [5] appears, read: Test System: AMES SALMONELLA TYPHIMURIUM, Strain/Indicator: TA1535, Metabolic Activation: NONE, Method: STANDARD PLATE.
Setting [6] is: Test System: AMES SALMONELLA TYPHIMURIUM, Strain/Indicator: TA1535, Metabolic Activation: RAT, LIVER, S-9, AROCLOR 1254, Method: STANDARD PLATE.
The mark [7] stands for this setting: Test System: AMES SALMONELLA TYPHIMURIUM, Strain/Indicator: TA1537, Metabolic Activation: NONE, Method: STANDARD PLATE.
Setting [8] is: Test System: AMES SALMONELLA TYPHIMURIUM, Strain/Indicator: TA1537, Metabolic Activation: RAT, LIVER, S-9, AROCLOR 1254, Method: STANDARD PLATE.
The mark [9] stands for this setting: Test System: AMES SALMONELLA TYPHIMURIUM, Strain/Indicator: TA1538, Metabolic Activation: NONE, Method: STANDARD PLATE.
The mark [10] stands for this setting: Test System: AMES SALMONELLA TYPHIMURIUM, Strain/Indicator: TA1538, Metabolic Activation: RAT, LIVER, S-9, AROCLOR 1254, Method: STANDARD PLATE.

Activity calls are given as the source filed them. How the calls were made is not given here.

Take `CC(=O)Nc1ccc(C(=O)[C@H]2O[C@H]2c2ccccc2)cc1`: the mutagenic call is “inactive; negative” under setting [1], “inactive; negative” under setting [2], “active; positive” under setting [3] and “active; positive” under setting [4].

For `CC(O)Cc1cc(N)cc([N+](=O)[O-])c1N` (stereo unspecified), the mutagenic call reads like this: under setting [1], “inactive; negative”; under setting [2], “inactive; negative”; under setting [3], “inactive; negative”; under setting [4], “inactive; negative”; under setting [5], “inactive; negative”; under setting [6], “inactive; negative”. Besides, the mutagenic call under setting [7] was “inactive; negative”, the mutagenic call under setting [8] is “inactive; negative”, the mutagenic call under setting [9] is “inactive; negative” and the mutagenic call under setting [10] is “inactive; negative”.

Turning to `CC(C)N(C(=O)SC/C(Cl)=C/Cl)C(C)C`, the mutagenic call was “inactive; negative” under setting [1]; “active; positive” under setting [2]; “inactive; negative” under setting [3]; “active; positive” under setting [4]; “inactive; negative” under setting [5]; “active; positive” under setting [6]. Further, the mutagenic call under setting [7] is “inactive; negative”, the mutagenic call under setting [8] was “inactive; negative”, the mutagenic call under setting [9] is “inactive; negative” and the mutagenic call under setting [10] is “inactive; negative”.

Turning to `CC(=O)N(O)c1ccc(/C=C\c2ccccc2)cc1`, the mutagenic call (Test System: UDS HUMAN FIBROBLASTS, Strain/Indicator: THY INCORP (NON-S-PHASE), Metabolic Activation: NONE, Method: AUTORADIOGRAPHY) is “active; positive”.

In the case of `CCN(Cc1cccc(S(=O)(=O)O)c1)c1ccc(C(=C2C=CC(=[N+](CC)Cc3cccc(S(=O)(=O)O)c3)C=C2)c2ccccc2S(=O)(=O)[O-])cc1`, the mutagenic call reads like this: (End Point: IN VIVO MICRONUCLEUS, Test System: BONE MARROW POLYCHROMATIC ERYTHROCYTES, Species: MOUSE, Strain/Sex: DDY/MALE, Route: IP) “inactive; negative”; (Test System: AMES SALMONELLA TYPHIMURIUM, Strain/Indicator: TA98, Metabolic Activation: HAMSTER, LIVER, S-9, AROCLOR 1254, Method: STANDARD PLATE) “active; positive”; (Test System: AMES SALMONELLA TYPHIMURIUM, Strain/Indicator: TA98, Metabolic Activation: HAMSTER, LIVER, S-9, Method: PREINCUBATION (PRIVAL METHOD)) “active; positive”; (Test System: AMES SALMONELLA TYPHIMURIUM, Strain/Indicator: TA98, Metabolic Activation: NONE, Method: PREINCUBATION) “inactive; negative”; (Test System: AMES SALMONELLA TYPHIMURIUM, Strain/Indicator: TA98, Metabolic Activation: S-9, Method: PREINCUBATION) “inactive; negative”; (Test System: AMES SALMONELLA TYPHIMURIUM, Strain/Indicator: TA100, Metabolic Activation: HAMSTER, LIVER, S-9, Method: PREINCUBATION (PRIVAL METHOD)) “active; positive”. In addition, the mutagenic call (Test System: AMES SALMONELLA TYPHIMURIUM, Strain/Indicator: TA100, Metabolic Activation: NONE, Method: PREINCUBATION) is “inactive; negative”; the mutagenic call (Test System: AMES SALMONELLA TYPHIMURIUM, Strain/Indicator: TA100, Metabolic Activation: S-9, Method: PREINCUBATION) was “inactive; negative”; the mutagenic call (Test System: AMES SALMONELLA TYPHIMURIUM, Strain/Indicator: TA1538, Metabolic Activation: RAT, LIVER, S-9, AROCLOR 1254, HAMSTER, LIVER, S-9, AROCLOR 1254, Method: STANDARD PLATE) was “active; positive”; the mutagenic call (Test System: MOUSE LYMPHOMA, Strain/Indicator: L5178Y (TK+/TK-), Metabolic Activation: RAT, LIVER, S-9, AROCLOR 1254, Method: SUSPENSION/PLATE) is “active; positive. reevaluation of results: positive”; the mutagenic call (Test System: Mouse lymphoma, Strain/Indicator: L5178Y (tk+/tk-), Metabolic Activation: None, Method: Suspension/plate) was “inactive; negative”.
